Values after ≈ are worked out from the molar mass of the structure shown. Read-outs that look alike come from different tables or passages of the source.
What was measured:
[1] = test system: green rice leafhopper (Nephotettix cincticeps); assay: Test Example 6: simulated paddy field test, green rice leafhopper; format: in vivo; conditions: 100 ppm at 100 liter/10 are, after 48 hours
Procedure: (§1) The wettable powder of each of the present compounds (1), (2), (4) and (5) prepared in Preparation Example 4 was diluted with water so that the concentration of active ingredient was 100 ppm. Soil was placed in a plastic box [5 m×5 m×2 m (deep)] to a level of 50 cm from the bottom, and rice plants about 50 cm high were transplanted at intervals of 50 cm. Water was then placed in the box so that water depth was 5 cm, and 20 killifishes (Oryzias latipes) were liberated therein. Thereafter, the above dilute solution was sprayed on the box at a rate of 100 liter/10 are. The solution fell on the rice plants as well as on the water surface.
(§2) One hour after treatment, 100 female adults of green rice leafhopper (Nephotettix cincticeps) were liberated in the box which was immediately covered with a net.

[2] = test system: killifishes (Oryzias latipes); assay: Test Example 6: simulated paddy field test, killifish; format: in vivo; conditions: 100 ppm at 100 liter/10 are, water depth 5 cm, after 48 hours
Procedure: as §1, §2

[3] = Test Example 7: Test for toxicity to fishes (fry carp); format: in vivo, fry carp (Cyprinus carpio); conditions: water, read-out: Toxicity to fishes TLm48
Procedure: (§3) Toxicity to killifish (Oryzias latipes) was tested according to the test method for toxicity to fishes described in Notification B No. 2735 of the Ministry of Agriculture and Forestry (Nov. 25, 1965). Namely, each of the present compounds (1), (4), (5) and (6) was dissolved or suspended in "Tween 80" and diluted successively with dechlorinated tap water. Ten killifish (0.2-0.3 g per fish) were released in a 10-liter glass vessel containing 5 liters of each preparation.
Toxicity to fry carp (Cyprinus carpio) was tested according to the test method for toxicity to fishes described in Notification B No. 2735 of the Ministry of Agriculture and Forestry (Nov. 25, 1965). The comparative test was made in a manner similar to that of Test Example 1.

[4] = Test Example 1: Test for toxicity to fishes (killifish); format: in vivo, killifish (Oryzias latipes); conditions: water; killifish, 48 hours; read-out: Toxicity to fishes TLm48 (medium tolerance limit, 48 hours)
Procedure: as §3
(§4) In order to make it clearer that the present compounds have a low toxicity to fishes as well as a high insecticidal activity, a safety coefficient to fishes was calculated from the test results of toxicity to fishes and insecticidal activity. [formula]
(§5) A detailed explanation will be given as to a method of how to calculate the safety coefficient. In the case of green rice leafhoppers, calculation was based on the concentration of active ingredient in water obtained by applying a test solution containing the active ingredient in an amount corresponding to LC50 (ppm) to a flooded paddy field 5 cm deep at a rate of 100 liter/10 are, provided that all the active ingredient applied entered the water.
(§6) In this case, the coefficient is 333, which means that the present compound (1) has a 333-fold safety.

[5] = test system: killifish (Oryzias latipes); assay: as above; format: in vivo; conditions: TLm48 killifish (a) / concentration of active ingredient in water (b) at green rice leafhopper LC50
Procedure: as §3, §4, §5, §6

[6] = test system: green rice leafhopper (Nephotettix cincticeps); assay: Test Example 1: Test for insecticidal activity (green rice leafhopper); format: in vivo; conditions: green rice leafhopper R-strain, spray on rice plant, 26° C., 24 hours, 3 replications, read-out: LC50 (median lethal concentration)
Description: The emulsifiable concentrates of the present compounds and reference compound prepared in Preparation Example 1 were each formulated into test solutions having four different concentrations of active ingredient between 500 ppm and 0.5 ppm. Each test solution was sprayed on rice plant in a 180-ml plastic cup which had elapsed one month after sowing, at a rate of 15 cc/2 cups by means of a turn table. After air-drying, the rice plant was covered with a wire-screen cage, and 15 female adults of green rice leafhopper (Nephotettix cincticeps) (a strain resistant to carbamates and organo-phosphates, hereinafter referred to as R-strain) were liberated therein. The plant was placed in an artificial climate chamber kept at 26° C. After 24 hours, the dead and alive were examined. The median lethal concentration [LC50 (ppm)] was calculated from the mortality determined by 3 replications.
as §5, §6

[7] = test system: yellow fever mosquito (Aedes aegypti); format: in vivo; conditions: 50 mg granule in 100 cc water, full grown larvae, 24 hours
Procedure: Fifty milligrams of the granule of the present compound (1) obtained in Preparation Example 6 was placed in a 100-cc beaker containing 100 cc of distilled water, and 30 full grown larvae of yellow fever mosquito (Aedes aegypti) were liberated therein. After 24 hours, 100% of the larvae could be killed.

[8] = test system: carmine mites (Tetranychus cinnabarinus); assay: Test Example 4: spray test against carmine mites on rice plants; format: in vivo; conditions: 500 ppm spray, all stages, after 10 days
Procedure: The emulsifiable concentrate of each of the present compounds (1) and (6) prepared in Preparation Example 1 was diluted with water so that the concentration of the active ingredient was 500 ppm. The dilute liquor was thoroughly sprayed on rice plants (grown in a 1/10,000 are Wagner's pot) on which carmine mites (Tetranychus cinnabarinus) in all stages were made parasitic.

[9] = test system: green rice leafhopper (Nephotettix cincticeps); assay: Test Example 5: Residual effect test (green rice leafhopper); format: in vivo
Procedure: The emulsifiable concentrate of the present compound (1) prepared in Preparation Example 1 was diluted with water so that the concentration of active ingredient was 400 ppm. Thereafter, 20 cc of the dilute solution was sprayed on rice plants grown in a 1/10,000 are Wagner's pot. The rice plants were air-dried and covered with a wire-screen cage, and 15 female adults of green rice leafhopper (Nephotettix cincticeps) were liberated therein. After 24 hours, the dead and alive were examined to obtain mortality. In order to examine the residual effect, the pot was then left as it was for 7 days, and the test insects were liberated in the same manner as above. After 24 hours, the mortality was examined. The experiment was carried out in a greenhouse and the number of replications was three.

SMILES	alive green rice leafhoppers found [1]	killifish survival [2]	LC50 at 48 h [3] [µg/mL]	LC50 at 48 h [4] [µg/mL]	Safety coefficient to fishes (a)/(b) [5]	LC50 [6] [µg/mL]	larvae killed [7] [%]	spreading of the damage to rice plants by carmine mites [8]	mortality at 400 ppm ([9]; 400 ppm spray, 24 hours after liberation, greenhouse, read-out: Mortality, effect immediately after treatment) [%]	mortality at 400 ppm ([9]; 400 ppm spray, insects liberated 7 days after treatment, 24 hours, greenhouse, read-out: Mortality, effect 7 days after treatment) [%]	mortality at 400 ppm ([9]; 24 h, read-out: Mortality, effect immediately after treatment) [%]	mortality at 400 ppm ([9]; read-out: Mortality, effect 7 days after treatment) [%]
CC1(C)[C@H](C(=O)OC(C#N)c2cccc(Oc3ccc(Br)cc3)c2)[C@H]1C(Br)C(Cl)(Cl)Br (relative stereo) [(2), m-(p-Bromophenoxy)-α-cyanobenzyl dl-trans-2,2-dimethyl-3-(1,2-dibromo-2,2-dichloroethyl)cyclopropanecarboxylate]	no alive green rice leafhoppers were found	all the killifishes were alive	> 1									
CC1(C)[C@H](C(=O)OC(C#N)c2cccc(Oc3ccc(Br)cc3)c2)[C@@H]1C(Br)C(Cl)(Cl)Br (relative stereo) [(3), m-(p-Bromophenoxy)-α-cyanobenzyl dl-cis-2,2-dimethyl-3-(1,2-dibromo-2,2-dichloroethyl)cyclopropanecarboxylate]			> 1									
CC1(C)C(C(=O)OC(C#N)c2cccc(Oc3ccc(Br)cc3)c2)C1C(Br)C(Cl)(Cl)Br (stereo not drawn) [(1), m-(p-Bromophenoxy)-α-cyanobenzyl 2,2-dimethyl-3-(1,2-dibromo-2,2-dichloroethyl)cyclopropanecarboxylate]	no alive green rice leafhoppers were found	all the killifishes were alive	> 1	4 (≈ 6.11 µM)	333	5.8 (≈ 8.85 µM)	100	the spreading of the damage could be prevented	100	100		
CC1(C)C(C(=O)OC(C#N)c2cccc(Oc3ccc(Br)cc3)c2)C1C(Br)C(Br)(Br)Br (stereo not drawn) [(4), m-(p-Bromophenoxy)-α-cyanobenzyl 2,2-dimethyl-3-(1,2,2,2-tetrabromoethyl)cyclopropanecarboxylate]	no alive green rice leafhoppers were found	all the killifishes were alive		> 10	> 500	10 (≈ 13.4 µM)						
CC1(C)[C@H](C(=O)OC(C#N)c2cccc(Oc3ccc(Br)cc3)c2)[C@H]1C(Br)C(Br)(Br)Br (stereo partly drawn) [(5), m-(p-Bromophenoxy)-α-cyanobenzyl d-trans-2,2-dimethyl-3-(1,2,2,2-tetrabromoethyl)cyclopropanecarboxylate]	no alive green rice leafhoppers were found	all the killifishes were alive		> 5	> 1667	1.7 (≈ 2.29 µM)						
CC1(C)[C@H](C(=O)OC(C#N)c2cccc(Oc3ccc(Br)cc3)c2)[C@@H]1C(Br)C(Br)(Br)Br (stereo partly drawn) [(6), m-(p-Bromophenoxy)-α-cyanobenzyl d-cis-2,2-dimethyl-3-(1,2,2,2-tetrabromoethyl)cyclopropanecarboxylate]				> 5	> 263	9.5 (≈ 12.8 µM)		the spreading of the damage could be prevented				
CC1(C)C(C(=O)OC(C#N)c2cccc(Oc3ccccc3)c2)C1C(Br)C(Cl)(Cl)Br (centres unmarked) [(A), reference compound]			0.00395 (≈ 0.00686 µM)	0.5 (≈ 0.868 µM)	50	5 (≈ 8.68 µM)						
CC1(C)C(C(=O)OC(C#N)c2cccc(Oc3ccc(F)cc3)c2)C1C(Br)C(Cl)(Cl)Br (centres unmarked) [(B), reference compound]			0.0028 (≈ 0.00471 µM)	0.1 (≈ 0.168 µM)	8	6.5 (≈ 10.9 µM)						
CNC(=O)Oc1ccc(C)c(C)c1 [MPMC, 3,4-Xylyl Nmethylcarbamate-, reference compound]											100	0

Source: patent US4303672A, “Cyclopropanecarboxylate insecticides and/or acaricides exhibiting low toxicity to mammals and fish” (priority 1979, dated 1981)
